Measurements published in PubChem BioAssay (NCI).
“And” between values parts separate entries of the source, which are not always exact repeats. Equal entries are not always repeated.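 How tested: cells in 96-well plates exposed to compound for 48 hours at five concentrations. GI50 marks 50% less growth. TGI is the concentration that stops growth completely.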

How the values were obtained:
Assay in all cases: NCI-60 cell line screen, 48 h
[1] = test system: ACHN renal
[2] = test system: UACC-62 melanoma
[3] = test system: HCT-15 colon
[4] = test system: SF-295 CNS
[5] = test system: CAKI-1 renal
[6] = test system: SF-268 CNS
[7] = test system: SNB-75 CNS
[8] = test system: 786-0 renal
[9] = test system: HCC-2998 colon
[10] = test system: MDA-MB-435

For `COc1c2nc(CCl)[nH]c(=O)c2c(OC)c2nc(CCl)[nH]c(=O)c12`, the TGI [1] was over 100 µM, the TGI [2] was over 100 µM and the TGI [3] was over 100 µM. The TGI [4] was over 100 µM, the TGI [5] was over 100 µM and the TGI [6] was over 100 µM. For the same compound, the TGI [7] was over 100 µM and the TGI [8] was over 100 µM.

`COc1ccc([N+]2=NC(c3ccc([N+](=O)[O-])cc3)=NN(c3ccccc3)C2)cc1` gave a TGI [1] of over 100 µM, a TGI [9] of over 100 µM and a TGI [3] of over 100 µM. The TGI [4] was over 100 µM, the TGI [6] was over 100 µM and the TGI [8] was over 100 µM.

In the case of `COc1ccc(NC(=O)C(=O)C(C(=O)c2ccccc2)C2OC(=O)c3ccccc32)c([N+](=O)[O-])c1` (stereo unspecified), the TGI [1] is reported as over 100 µM, the TGI [2] is reported as over 100 µM and the TGI [9] is reported as over 100 µM. The TGI [3] was over 100 µM, the TGI [4] was over 100 µM and the TGI [5] was over 100 µM. The TGI [6] was over 100 µM, the TGI [7] was over 100 µM and the TGI [8] was over 100 µM.

In the case of `O=[N+]([O-])c1cc(Cl)c(Cl)c([N+](=O)[O-])c1Cl`, the GI50 [1] is reported as 1760 nM, the TGI [1] is reported as 3.6 µM and the GI50 [2] is reported as 1.94 µM. It also gave a TGI [2] of 4.35 µM, a GI50 [3] of 1 µM and a TGI [3] of 2.84 µM. It also gave a GI50 [4] of 1990 nM, a TGI [4] of 4.4 µM and a GI50 [5] of 184 nM. It also gave a TGI [5] of 0.36 µM, a GI50 [6] of 1770 nM and a TGI [6] of 3.39 µM. For the same compound, the GI50 [10] was 1700 nM, the TGI [10] was 3.46 µM and the GI50 [7] was 1470 nM. The TGI [7] was 2.81 µM, the GI50 [8] was 1880 nM and the TGI [8] was 3.43 µM.

For `O=C(Nc1cc(Cl)c(Cl)cc1Cl)C(=O)C1C=CCS1(=O)=O` (stereo unspecified), the TGI [1] was over 100 µM, the TGI [2] was over 100 µM and the TGI [9] was over 100 µM. The TGI [3] was over 100 µM, the TGI [4] was over 100 µM and the TGI [5] was over 100 µM. The TGI [6] was over 100 µM, the TGI [7] was over 100 µM and the TGI [8] was over 100 µM.

Work on `CC(=O)CC(=O)Nc1ccc2ccccc2c1` yielded a TGI [1] of over 100 µM, a TGI [2] of over 100 µM and a TGI [3] of over 100 µM. The TGI [4] was over 100 µM, the TGI [5] was over 100 µM and the TGI [6] was over 100 µM. It also gave a TGI [10] of over 100 µM, a TGI [7] of over 100 µM and a TGI [8] of over 100 µM.

`COC(=O)c1s/c(=N\C(=S)N(C)C)n(-c2ccccc2)c1C(=O)OC` was tested, and the TGI [1] was over 100 µM, the TGI [2] was over 100 µM and the TGI [9] was over 100 µM. The TGI [3] was over 100 µM, the TGI [4] was over 100 µM and the TGI [5] was over 100 µM. It also gave a TGI [6] of over 100 µM, a TGI [7] of over 100 µM and a TGI [8] of over 100 µM.

Compound `Nc1c(C(=O)c2ccc(Cl)cc2)sc(Nc2ccccc2)c1-c1nc2ccccc2s1` has a GI50 [1] of 1610 nM, a TGI [1] of over 100 µM and a GI50 [2] of 2.27 µM. For the same compound, the TGI [2] was over 100 µM, the GI50 [9] was over 100 µM and the TGI [9] was over 100 µM. For the same compound, the GI50 [3] was 2.44 µM, the TGI [3] was over 100 µM and the GI50 [4] was 2180 nM. It also gave a TGI [4] of 10.8 µM, a GI50 [6] of 1440 nM and a TGI [6] of over 100 µM. For the same compound, the GI50 [7] was 1890 nM, the TGI [7] was 9.5 µM and the GI50 [8] was 2800 nM. The TGI [8] was 8.18 µM.

`O=C1OC(CC(=O)c2ccc(Cl)c(Cl)c2)C(Cl)=C1Cl` (stereo unspecified) was tested, and the TGI [1] was over 100 µM, the TGI [2] was over 100 µM and the TGI [9] was over 100 µM. The TGI [3] was over 100 µM, the TGI [4] was over 100 µM and the TGI [5] was over 100 µM. For the same compound, the TGI [6] was over 100 µM, the TGI [7] was over 100 µM and the TGI [8] was over 100 µM.

In the case of `CN[C@@H](C)C(=O)N[C@H](C(=O)N1CCC[C@H]1C(=O)N[C@H]1c2ccccc2C[C@H]1OCC#CC#CCO[C@@H]1Cc2ccccc2[C@@H]1NC(=O)[C@@H]1CCCN1C(=O)[C@@H](NC(=O)[C@H](C)NC)C1CCCCC1)C1CCCCC1`, the GI50 [1] is reported as 14400 nM, the TGI [1] is reported as 28.5 µM and the GI50 [2] is reported as 4.57 µM. It also gave a TGI [2] of 9.97 µM, a GI50 [9] of 1.77 µM and a TGI [9] of 4.45 µM. The GI50 [3] was 17.5 µM, the TGI [3] was 40 µM and the GI50 [4] was 514 nM. It also gave a TGI [4] of 20.8 µM, a GI50 [5] of over 68200 nM and a TGI [5] of over 100 µM. The GI50 [6] was 5580 nM, the TGI [6] was 13.5 µM and the GI50 [7] was under 10 nM. It also gave a TGI [7] of 1.16 µM, a GI50 [8] of 9290 nM and a TGI [8] of 25.3 µM.

With `CCCCc1c2c(nc3c1CCC/C3=C\c1ccccc1)C(=O)CCC2` the TGI [1] was 95.2 µM, the TGI [2] was 44 µM and the TGI [9] was 35.2 µM. It also gave a TGI [3] of 51.9 µM, a TGI [4] of 40.3 µM and a TGI [6] of 44.3 µM. For the same compound, the TGI [7] was 84.5 µM and the TGI [8] was 60.9 µM.

`CC(C)CS(=O)(=O)/C(=C(\c1ccc(Br)cc1)S(=O)(=O)CC(C)C)c1ccc(Br)cc1` gave a TGI [1] of over 100 µM, a TGI [2] of over 100 µM and a TGI [9] of over 100 µM. It also gave a TGI [3] of over 100 µM, a TGI [4] of over 100 µM and a TGI [5] of over 100 µM. For the same compound, the TGI [6] was over 100 µM, the TGI [7] was over 100 µM and the TGI [8] was over 100 µM.

`O=[N+]([O-])c1cccc(C2N3CCCCC3[C@@H]3c4[nH]c5ccccc5c4CCN23)c1` (stereo partly specified) was tested, and the TGI [1] was 38.7 µM, the TGI [2] was 19.9 µM and the TGI [3] was 23.3 µM. The TGI [4] was 31.4 µM, the TGI [5] was over 100 µM and the TGI [6] was 27.4 µM. The TGI [8] was 43.3 µM.

`CC(=O)OCC1OC(N2C(=O)C(=O)c3cc(C)ccc32)C(OC(C)=O)C(OC(C)=O)C1OC(C)=O` (stereo unspecified) gave a TGI [1] of over 100 µM, a TGI [2] of over 100 µM and a TGI [3] of over 100 µM. The TGI [4] was over 100 µM, the TGI [5] was over 100 µM and the TGI [6] was over 100 µM. The TGI [7] was over 100 µM and the TGI [8] was over 100 µM.

With `Cc1c[nH]c2c(O)cc3c(c12)[C@H](CCl)CN3C(=O)c1cc2cc(NC(=O)Nc3ccc4[nH]c(C(=O)N5C[C@@H](CCl)c6c5cc(O)c5[nH]cc(C)c65)cc4c3)ccc2[nH]1` the GI50 [1] was 0.0841 nM, the GI50 [3] was 47.9 µM and 0.000888 µg/mL and the TGI [3] was > 100 µM and 0.00213 µg/mL. For the same compound, the GI50 [5] was 0.268 nM, the TGI [6] was 58.9 nM and 82.3 µM and 0.00887 µg/mL and the GI50 [10] was 14.6 nM. For the same compound, the GI50 [8] was 0.203 nM.

`Cc1cc(Cl)ccc1NC(=O)CCCC(=O)C1CCCC1=O` (stereo unspecified) gave a TGI [1] of over 100 µM, a TGI [2] of over 100 µM and a TGI [9] of over 100 µM. It also gave a TGI [3] of over 100 µM, a TGI [4] of over 100 µM and a TGI [5] of over 100 µM. For the same compound, the TGI [6] was over 100 µM and the TGI [8] was over 100 µM.

For `Cc1[nH]c2ccccc2c1C1Cc2ccccc2N1C(=O)/C=C\C(=O)O` (stereo unspecified), the TGI [1] was over 100 µM, the TGI [2] was 72.3 µM and the TGI [9] was over 100 µM. For the same compound, the TGI [3] was over 100 µM, the TGI [4] was 99.4 µM and the TGI [5] was over 100 µM. The TGI [6] was 68.4 µM, the TGI [7] was over 100 µM and the TGI [8] was over 100 µM.

`COc1cc2c(cc1OCCCOc1cc3c(cc1OC)C(=O)N1C[C@H](F)C[C@H]1C=N3)N=C[C@@H]1C[C@@H](F)CN1C2=O` showed a GI50 [1] of 10500 nM, a TGI [1] of 31.8 µM and a GI50 [2] of 4.79 µM. For the same compound, the TGI [2] was 17.5 µM, the GI50 [3] was 10.3 µM and the TGI [3] was 23.6 µM. The GI50 [4] was 5360 nM, the TGI [4] was 18.1 µM and the GI50 [5] was 4830 nM. It also gave a TGI [5] of 17.6 µM, a GI50 [6] of 2260 nM and a TGI [6] of 6.01 µM. For the same compound, the GI50 [10] was 14300 nM, the TGI [10] was 27.4 µM and the GI50 [8] was 8450 nM. It also gave a TGI [8] of 20.6 µM.

`CCOC(=O)C(N)C[S][Sn]([CH3])([CH3])[Cl]` (stereo unspecified) showed a GI50 [1] of over 100000 nM, a TGI [1] of over 100 µM and a GI50 [2] of 65.9 µM. For the same compound, the TGI [2] was over 100 µM, the GI50 [9] was over 100 µM and the TGI [9] was over 100 µM. It also gave a GI50 [3] of over 79.1 µM, a TGI [3] of over 100 µM and a GI50 [4] of over 100000 nM. It also gave a TGI [4] of over 100 µM, a GI50 [5] of over 100000 nM and a TGI [5] of over 100 µM. For the same compound, the GI50 [6] was over 100000 nM, the TGI [6] was over 100 µM and the GI50 [7] was 52500 nM. It also gave a TGI [7] of over 100 µM, a GI50 [8] of over 100000 nM and a TGI [8] of over 100 µM.
